In patent US20220098197A1, “SALTS OF HETEROCYCLIC COMPOUND AND USE THEREOF” (priority 2019, published 2022):

Legend:
[1] = system: neutrophils; assay: PGD2-induced neutrophils migration, Boyden chamber assay (Example 1); format: cell-based, mice; conditions: pretreatment CT-NA 1 and 10 μM (p<0.01) or OC459; PGD2 1 μM; 4 hrs
Protocol: The mice were intragastrically administered glycogen (1.5%) at the dose range of 20 ml/kg of body weight. 4 hrs later, the mice were euthanized to isolate neutrophils from the peritoneal lavage. The effect of CT-NA on neutrophils migration was detected by using the Boyden chamber assay kit (3 μm pore size). PGD2 was used as a chemoattractant because the activated PGD2/CRTH2 receptors promoted the migration of neutrophils. Initially, the isolated neutrophils (4×10^5) were diluted in 100 μL HBSS and allowed to migrate toward PGD2 (0.1, 1 and 10 μM) for 4 hrs to find out the suitable PGD2 concentration. Then, the isolated neutrophils (4×10^5) were pretreated with CT-NA (1 and 10 μM), and their migration to PGD2 (1 μM) was evaluated by counting the migrated neutrophils. Moreover, another potent CRTH2 inhibitor OC459 was used to countercheck the outcomes of CT-NA.

[2] = system: LPS-induced ALI mice; assay: LPS-induced ALI model: histological examination (H&E); format: in vivo, Balb/c mice
Protocol: Specific pathogen-free (SPF) Balb/c mice (♂/♀; 20-26 g; 8 weeks old) were purchased from Shanghai SIPPR-BK Experimental Animal Co., Ltd. Mice were kept in an isolated ventilated cage in an environment of 40-60% humidity, 24±2° C., and 12 hrs/12 hrs dark-light cycle, and had free access to food and water. The method for preparing the LPS-induced ALI model was simply described as follows. The mice were randomly divided into a control group (12 mice) and an LPS group (48 mice). The LPS group (48 mice) was further divided into four subgroups (12 mice in each subgroup). The unanaesthetized mice in the four subgroups of LPS were intragastrically administered with normal saline (NS), CT-NA at 10 mg/kg or 30 mg/kg, and Dex at 1 mg/kg, respectively. […] 24 hrs after LPS challenge, the oxygen saturation (SO2) of all mice was measured by a Moor VMS-OXY™ instrument which measured SO2 (%) in the microcirculation at the wavelength range of 500 to 650 nm. […]
The lower lobe of the left lung of each mouse was inflated with neutral buffered 10% formalin instilled at room temperature under constant pressure of 22 to 25 cm H2O for 48 hrs. […] Pulmonary edema, hemorrhage, alveolar wall thickening and infiltration of neutrophils and inflammatory cells were counted and scored to evaluate the severity of lung injury. […] The total lung injury score was expressed as the sum of the four criteria. […]

[3] = system: LPS-induced ALI mice; assay: LPS-induced ALI model: pulmonary vascular permeability by Evans blue dye; format: in vivo, Balb/c mice; conditions: CT-NA 10 mg/kg (P<0.05) or 30 mg/kg (P<0.01), Dex 1 mg/kg (P<0.01)
Protocol: Evans Blue was a dye that could quickly bind to albumin and was remains restricted within blood vessels because the endothelium was impermeable to albumin under normal physiological conditions. Pulmonary microvascular permeability was assessed by measuring the extravasation of Evans blue dye in the lungs. The method was briefly described as follows. The mice were randomly divided into control group (12 mice) and LPS group (48 mice). The LPS group (48 mice) was further divided into four subgroups (each subgroup contains 12 mice). To measure pulmonary microvascular permeability, the unanaesthetized mice of LPS group received intragastric instillation of NS, CT-NA at 10 mg/kg or 30 mg/kg, or Dex at 1 mg/kg respectively. One hour later, the anaesthetized mice were intratracheally instilled with NS (control group) and LPS (all LPS subgroups) at 10 μl/10 g of body weight. […] And then the absorbance of the Evans blue dye extracted in the supernatant was measured against formamide blank at 620 nm via standard curve method, and expressed as microgram of dye per 100 mg of wet lung weight. In addition, the concentration of albumin in BALF was measured at 628 nm using a spectrophotometer and an albumin measurement kit. The albumin concentration ratio assessed from BALF represented not only the albumin level but also the permeability of the pulmonary microvascular.

[4] = system: neutrophils; assay: PGD2-induced neutrophils migration in vitro, Boyden chamber (Example 2); format: cell-based, mice; conditions: pretreatment CT-NA 1 μM or 10 μM, OC459 10 μM; 4 hrs; P<0.01
Protocol: The method for isolating neutrophils and testing effect of CT-NA on neutrophils migration was briefly described as follows. 1.5% glycogen was injected intragastrically into mice at a dose of 20 ml/kg body weight. 4 hrs later, the mice were euthanized to isolate neutrophils from the peritoneal lavage. Effect of CT-NA on the migration of neutrophils was detected using the Boyden chamber assay kit (3 um pore size, Billerica, Mass.). PGD2 was used as a chemoattractant because the activated PGD2/CRTH2 receptors promoted the neutrophils migration. Firstly, the isolated neutrophils were inoculated at 4×10^5 cells/ml into the upper side of well of the Boyden chamber, and the lower chamber contained different concentrations of PGD2 (0.1, 1 and 10 μM), and the neutrophils were allowed to migrate towards PGD2 for 4 hrs at 37° C. in order to find out the suitable PGD2 concentration. After evaluation of the suitable PGD2 concentration, the migration of neutrophils pretreated with CT-NA (1 and 10 μM) and OC459 (10 μM), another effective CRTH2 inhibitor, toward PGD2 (1 μM) was assessed for 4 hrs.

Compound: CN([C@@H]1CCc2c(CC(=O)[O-])c3cccnc3n2C1)S(=O)(=O)c1ccc(F)cc1.[Na+] [Sodium salt hydrate]
- PGD2-induced neutrophils migration [1]: significantly attenuated
- pathological scores ([2]; CT-NA 10 mg/kg (P<0.05) and 30 mg/kg (P<0.01), Dex 1 mg/kg (P<0.01)): considerably reduced
- LPS-induced pulmonary histopathological changes ([2]; CT-NA 10 or 30 mg/kg (dose dependence) or Dex 1 mg/kg, H&E): significant reduction
- LPS-induced pulmonary vascular leakage and extravasation of Evans Blue dye [3]: significantly reduced
- neutrophils migration induced by 1 μM PGD2 [4]: significantly reduced
